# Several values for one entry are separate records, joined by “and”; a condition that tells them apart may be missing. Identical values can stand only once.
# Test system: HeLa S-3 cells
# Experiment: Inhibition of cell growth of HeLa cells (SRB)
# Assay type: cell-based, human
# Details: 2 days of treatment, replicate experiments
# Protocol: Growth inhibition (GI50) values were measured with HeLa S-3 cells selected for growth on plastic. […] One day later, a control plate was fixed by addition of TCA to 5%. After five rinses with tap water the plate was air dried and stored at 4° C. Test compounds were added to the remaining plates at 10-fold dilutions between 0.01 and 100 μM. Two days later all plates were fixed as described above. Cells were then stained by the addition of 100 μl per well of 0.4% sulforhodamine B (SRB) in 1% acetic acid for 30 min at 4° C. Wells were then quickly rinsed 5×with acetic acid (1%) and allowed to air dry. The SRB was then solubilized by the addition of 100 μl per well of unbuffered 10 mM Tris base. Dye was quantified by measuring absorbance at 490 nm on a Molecular Devices kinetic microplate reader. Growth at each inhibitor concentration relative to the untreated control was calculated according to the following equation: percent growth=100×(T−To)/(C−To), where T was the average optical density (OD) of the test wells after 2 days of treatment, To was the average OD of the wells in the control plate on day 0 and C was the average OD of untreated wells. Plots of percent growth versus inhibitor concentration were used to determine the GI50.
"GI50 (Homo sapiens, HeLa S3, 48 h)",GI50,Compound
300 nM,–,CC(=O)N[C@H]1CC[C@H](Nc2nc(NCc3ccc(-c4ccc(Cl)s4)cc3)c3ncn(C(C)C)c3n2)CC1 [Compound 265]
–,300 nM and 200 nM and 500 nM,CC(C)n1cnc2c(NCc3ccc(-c4ccccc4)cc3)nc(N[C@H]3CC[C@H](N4C(=O)CCC4=O)CC3)nc21 [Compound 262]
> 10000 nM,–,CC(=O)N[C@H]1CC[C@H](Nc2nc(NCCOc3ccc(-c4ccccc4)cc3)c3ncn(C(C)C)c3n2)CC1 [Compound 249]
40 nM,–,CC(C)n1cnc2c(NCc3ccc(-c4cccc(F)c4)nc3)nc(N[C@H]3CC[C@H](NC(=O)[C@H](C)N)CC3)nc21 [Compound 231]
6000 nM,–,CC(C)n1cnc2c(NCCc3ccc(-c4ccccc4)cc3)nc(N[C@H]3CC[C@H](N)CC3)nc21 [Compound 239]
–,300 nM and 700 nM,COC(=O)N[C@H]1CC[C@H](Nc2nc(NCc3ccc(-c4ccccc4)cc3)c3ncn(C(C)C)c3n2)CC1 [Compound 259]
300 nM,500 nM,CC(C)n1cnc2c(NCc3ccc(-c4ccc(Cl)s4)cc3)nc(N[C@H]3CC[C@H](N)CC3)nc21 [Compound 264]
–,300 nM,CC(C)n1cnc2c(NCc3ccc(-c4ccccc4)cc3)nc(N[C@H]3CC[C@H](NC(=O)C4CC4)CC3)nc21 [Compound 261]
300 nM,–,CC(C)n1cnc2c(NCc3ccc(-c4cccc(F)c4)nc3)nc(N[C@H]3CC[C@H](NC(=O)[C@H](C)NC(=O)OC(C)(C)C)CC3)nc21 [Compound 230]
2000 nM,–,CCCNCCCCNc1nc(NCc2ccc(-c3ccccc3)cc2)c2ncn(C(C)C)c2n1 [Compound 215]

# Further lines, the molecule ahead of its results:
Compound,"GI50 (Homo sapiens, HeLa S3, 48 h)",GI50
CC(C)n1cnc2c(NCc3cccc(-c4ccsc4)c3)nc(N[C@H]3CC[C@H](NC(=O)OC(C)(C)C)CC3)nc21 [Compound 130],–,> 10000 nM
CC(=O)N[C@H]1CC[C@H](Nc2nc(NCc3ccc(-c4ccco4)nc3)c3ncn(C(C)C)c3n2)CC1 [Compound 206],–,200 nM
CC(C)n1cnc2c(NCc3ccc(-c4cccc(F)c4)nc3)nc(N[C@H]3CC[C@H](N)CC3)nc21 [Compound 187],50 nM,30 nM
CC(=O)N[C@H]1CC[C@H](Nc2nc(NCc3ccc(-c4cc(C)cs4)cc3)c3ncn(C(C)C)c3n2)CC1 [Compound 161],–,200 nM
CCCN[C@H]1CC[C@H](Nc2nc(NCc3ccc(-c4cc(OC)ccc4OC)cc3)c3ncn(C(C)C)c3n2)CC1 [Compound 155],500 nM,800 nM
CCCN[C@H]1CC[C@H](Nc2nc(NCc3ccc(-c4cc(C)cs4)cc3)c3ncn(C(C)C)c3n2)CC1 [Compound 162],200 nM,–
CC(C)n1cnc2c(NCc3ccc(-c4ccco4)cc3)nc(N[C@H]3CC[C@H](N)CC3)nc21 [Compound 181],40 nM,–
CC(C)n1cnc2c(NCc3ccc(-c4cccs4)nc3)nc(N[C@H]3CC[C@H](N)CC3)nc21 [Compound 199],–,200 nM and 90 nM
CC[C@H](CO)Nc1nc(NCc2ccc(-c3ccc(C(O)CO)cc3)cc2)c2ncn(C(C)C)c2n1 (stereo partly drawn) [Compound 34],7000 nM,–
CC(=O)N[C@H]1CC[C@H](Nc2nc(NCc3ccc(-c4ccoc4)cc3)c3ncn(C(C)C)c3n2)CC1 [Compound 165],–,200 nM and 100 nM
CC(=O)N[C@H]1CC[C@H](Nc2nc(NCc3ccc(-c4ccco4)cc3)c3ncn(C(C)C)c3n2)CC1 [Compound 182],300 nM,–
CCCNCCNc1nc(NCc2ccc(-c3ccccc3)cc2)c2ncn(C(C)C)c2n1 [Compound 209],2000 nM,–
CC[C@H](CO)Nc1nc(NCc2ccc(-c3cccc(N)c3)cc2)c2ncn(C(C)C)c2n1 [Compound 36],20000 nM,–
Cc1csc(-c2ccc(CNc3nc(N[C@H]4CC[C@H](N)CC4)nc4c3ncn4C(C)C)cc2)c1 [Compound 160],200 nM,–
CCCN(CCC)CCNc1nc(NCc2ccc(-c3ccccc3)cc2)c2ncn(C(C)C)c2n1 [Compound 210],3000 nM,–
CC(C)n1cnc2c(NCc3cccc(-c4ccccc4)c3)nc(N[C@H]3CC[C@H](NC(=O)OC(C)(C)C)CC3)nc21 [Compound 133],–,> 10000 nM
CC(=O)NCCCCNc1nc(NCc2ccc(-c3ccccc3)cc2)c2ncn(C(C)C)c2n1 [Compound 214],5000 nM,–

# Reference: patent US20030087906A1, “NITROGEN SUBSTITUTED BIARYL PURINE DERIVATIVES AS POTENT ANTIPROLIFERATIVE AGENTS” (priority 2001, published 2003)
